Converted amounts (≈) assume the structure as drawn. The source made the active and inactive calls. No cut-off for these calls is given here.
Experiments:
Candida albicans [1] = test: Antifungal activity against Fluconazole-resistant Candida albicans 58288 assessed as inhibition of fungal growth incubated for 48 hrs; type: functional
[2] = Cytotoxicity against porcine IPEC-J2 cells assessed as reduction in cell viability at 128 uM incubated for 4 hrs by MTT assay; type: toxicity, cell-based, Sus scrofa; conditions: pig, ipec-j2, 4 h
Candida albicans [3] = test: Antifungal activity against Candida albicans CGMCC 2.2086 assessed as inhibition of fungal growth incubated for 48 hrs in presence of MgCl2; type: functional
[4] = Hemolytic activity in human red blood cells assessed as hemolysis incubated for 1 hr; type: toxicity, cell-based, Erythrocyte
[5] = Stability of the compound in KCl assessed as change in secondary structure by CD spectra analysis; type: physicochemical
Candida albicans [6] = test: Antifungal activity against Candida albicans CGMCC 2.2086 assessed as inhibition of fungal growth incubated for 48 hrs; type: functional
HEK293 [7] = test: Cytotoxicity against HEK293 cells assessed as reduction in cell viability at 128 uM incubated for 4 hrs by MTT assay; type: toxicity, cell-based; conditions: human, hek293, 4 h
Candida albicans [8] = test: Antifungal activity against Candida albicans CGMCC 2.2086 assessed as inhibition of fungal growth incubated for 48 hrs in presence of FeCl3; type: functional
[9] = Stability of the compound in NaCl assessed as change in secondary structure by CD spectra analysis; type: physicochemical
[10] = Stability of the compound in FeCl3 assessed as change in secondary structure by CD spectra analysis; type: physicochemical
Candida albicans [11] = test: Antifungal activity against Candida albicans CGMCC 2.2086 assessed as inhibition of fungal growth incubated for 48 hrs in presence of CaCl2; type: functional
[12] = Hemolytic activity in human red blood cells assessed as hemolysis rate at 512 uM incubated for 1 hr relative to control; type: toxicity, cell-based, Erythrocyte; conditions: read-out: Activity
Candida albicans [13] = test: Antifungal activity against Candida albicans CGMCC 2.2086 assessed as inhibition of fungal growth incubated for 48 hrs in presence of NaCl; type: functional
Candida albicans [14] = test: Antifungal activity against Candida albicans 14936 assessed as inhibition of fungal growth incubated for 48 hrs; type: functional
Candida parapsilosis = test: Antifungal activity against Candida parapsilosis CGMCC 2.3989 assessed as inhibition of fungal growth incubated for 48 hrs; type: functional; conditions: Lodderomyces parapsilosis
Candida albicans [15] = test: Antifungal activity against Candida albicans 17546 assessed as inhibition of fungal growth incubated for 48 hrs; type: functional
Candida tropicalis = test: Antifungal activity against Candida tropicalis CGMCC 2.1975 assessed as inhibition of fungal growth incubated for 48 hrs; type: functional
Candida albicans [16] = test: Antifungal activity against Candida albicans CGMCC 2.2086 assessed as inhibition of fungal growth incubated for 48 hrs in presence of KCl; type: functional
Candida albicans [17] = test: Antifungal activity against Candida albicans CGMCC 2.2086 assessed as inhibition of fungal growth incubated for 48 hrs in presence of ZnCl2; type: functional
Candida albicans [18] = test: Antifungal activity against Candida albicans CGMCC 2.2086 assessed as inhibition of fungal growth incubated for 48 hrs in presence of NH4Cl; type: functional
[19] = Stability of the compound in CaCl2 assessed as change in secondary structure by CD spectra analysis; type: physicochemical
[20] = Stability of the compound in ZnCl2 assessed as change in secondary structure by CD spectra analysis; type: physicochemical
Candida albicans [21] = test: Antifungal activity against Candida albicans SP3876 assessed as inhibition of fungal growth incubated for 48 hrs; type: functional
Candida albicans [22] = test: Antifungal activity against Candida albicans 56452 assessed as inhibition of fungal growth incubated for 48 hrs; type: functional
Candida albicans [23] = test: Antifungal activity against Candida albicans SP3903 assessed as inhibition of fungal growth incubated for 48 hrs; type: functional
[24] = Stability of the compound in MgCl2 assessed as change in secondary structure by CD spectra analysis; type: physicochemical
Candida albicans [25] = test: Antifungal activity against Candida albicans SP3931 assessed as inhibition of fungal growth incubated for 48 hrs; type: functional
[26] = Stability of the compound in NH4Cl assessed as change in secondary structure by CD spectra analysis; type: physicochemical
Candida albicans [27] = test: Antifungal activity against Candida albicans SP3902 assessed as inhibition of fungal growth incubated for 48 hrs; type: functional
Candida albicans [28] = test: Antifungal activity against Fluconazole-resistant Candida albicans 56214 assessed as inhibition of fungal growth incubated for 48 hrs; type: functional
Candida albicans [29] = test: Antifungal activity against Candida albicans CGMCC 2.2086 assessed as inhibition of fungal growth incubated for 2 hrs in presence of trypsin; type: functional, organism-based
Candida albicans [30] = test: Antifungal activity against Candida albicans CGMCC 2.2086 assessed as inhibition of fungal growth incubated for 2 to 4 hrs in presence of 100% serum; type: functional, organism-based; conditions: time 2-4 hrs
Cell membrane [31] = test: Induction of cytoplasmic membrane depolarization in Candida albicans CGMCC 2.2086 at 0.5 to 2X MIC measured up to 3600 secs by DISC3-5 dye based fluorescence assay; type: subcellular; conditions: time <= 3600.0 sec
Candida albicans [32] = test: Induction of morphological changes in Candida albicans CGMCC 2.2086 at 1X MIC measured after 60 mins by TEM analysis; type: functional, organism-based
HEK293 [33] = test: Cytotoxicity against HEK293 cells assessed as cell death at 64 uM measured after 8 hrs by calcein-AM and propidium iodide Live/Dead dye staining assay; type: toxicity, cell-based; conditions: human, hek293, 8 h
Candida albicans [34] = test: Antibiofilm activity against Candida albicans CGMCC 2.2086 assessed as inhibition of biofilm formation at antifungal MIC measured after 48 hrs by crystal violet staining based assay; type: functional
Candida albicans [35] = test: Induction of morphological changes in Candida albicans CGMCC 2.2086 assessed as appearance of cell pits at 1X MIC measured after 60 mins by SEM analysis; type: functional, organism-based
Candida albicans [36] = test: Antifungal activity against Candida albicans CGMCC 2.2086 assessed as inhibition of fungal growth incubated for 2 hrs in presence of protease K; type: functional, organism-based
Candida albicans [37] = test: Induction of Candida albicans CGMCC 2.2086 cell wall permeabilization by NPN probe based assay; type: functional, organism-based; conditions: dose 1-128 µM
Candida albicans [38] = test: Antifungal activity against Candida albicans CGMCC 2.2086 assessed as inhibition of fungal growth incubated for 2 hrs in presence of chymotrypsin; type: functional, organism-based
Candida albicans [39] = test: Induction of Candida albicans CGMCC 2.2086 cell wall permeabilization at 128 uM by NPN probe based assay relative to control; type: functional
Candida albicans [40] = test: Induction of ROS generation in Candida albicans CGMCC 2.2086 measured after 60 mins by […] dye based fluorescence assay; type: functional, organism-based; conditions: dose 0.5-128 µM
Cell membrane [41] = test: Disruption of Candida albicans CGMCC 2.2086 cell membrane at 1X MIC measured after 1 hr by SYTO9/propidium iodide staining based fluorescence microscopic analysis; type: subcellular

SMILES: CC[C@H](C)[C@H](N)C(=O)N[C@H](C(=O)N[C@H](CCCNC(=N)N)C(=O)N[C@@H](CCCNC(=N)N)C(=O)N[C@@H](Cc1c[nH]cn1)C(=O)N[C@H](C(=O)N[C@H](C(=O)N[C@H](C(=O)N[C@H](C(=O)N[C@H](CCCNC(=N)N)C(=O)N[C@@H](CCCNC(=N)N)C(=O)N[C@@H](Cc1c[nH]cn1)C(=O)N[C@H](C(=O)N[C@H](C(=O)N[C@H](C(=O)N[C@H](C(=O)N[C@H](CCCNC(=N)N)C(=O)N[C@@H](CCCNC(=N)N)C(=O)N[C@@H](Cc1c[nH]cn1)C(=O)N[C@H](C(=O)N[C@H](C(=O)N[C@H](C(=O)N[C@H](C(=O)N[C@H](CCCNC(=N)N)C(=O)N[C@@H](CCCNC(=N)N)C(=O)N[C@@H](Cc1c[nH]cn1)C(=O)N[C@H](C(=O)N[C@H](C(N)=O)[C@@H](C)CC)[C@@H](C)CC)[C@@H](C)CC)[C@@H](C)CC)[C@@H](C)CC)[C@@H](C)CC)[C@@H](C)CC)[C@@H](C)CC)[C@@H](C)CC)[C@@H](C)CC)[C@@H](C)CC)[C@@H](C)CC)[C@@H](C)CC)[C@@H](C)CC)[C@@H](C)CC
- MIC95 (Candida albicans [1]): 8 µM (≈ 29 µg/mL)
- Activity [2]: Toxic
- MIC95 (Candida albicans [3]): 8 µM
- HC50 at 1 h [4]: > 512 µM
- Stability [5]: Stable
- MIC95 (Candida albicans [6]): 4 µM (≈ 14.5 µg/mL)
- Activity (HEK293 [7]): Toxic
- MIC95 (Candida albicans [8]): 16 µM
- Stability [9]: Unstable
- Stability [10]: Stable
- MIC95 (Candida albicans [11]): 16 µM
- hemolysis at 1 h, 512 µM [12]: 38.9%
- MIC95 (Candida albicans [13]): 32 µM
- MIC95 (Candida albicans [14]): 4 µM (≈ 14.5 µg/mL)
- MIC95 (Candida parapsilosis): 4 µM (≈ 14.5 µg/mL)
- MIC95 (Candida albicans [15]): 8 µM (≈ 29 µg/mL)
- MIC95 (Candida tropicalis): 4 µM (≈ 14.5 µg/mL)
- MIC95 (Candida albicans [16]): 8 µM
- MIC95 (Candida albicans [17]): 16 µM
- MIC95 (Candida albicans [18]): 8 µM
- Stability [19]: Stable
- Stability [20]: Stable
- MIC95 (Candida albicans [21]): 4 µM (≈ 14.5 µg/mL)
- MIC95 (Candida albicans [22]): 8 µM (≈ 29 µg/mL)
- MIC95 (Candida albicans [23]): 4 µM (≈ 14.5 µg/mL)
- Stability [24]: Stable
- MIC95 (Candida albicans [25]): 8 µM (≈ 29 µg/mL)
- Stability [26]: Stable
- MIC95 (Candida albicans [27]): 4 µM (≈ 14.5 µg/mL)
- MIC95 (Candida albicans [28]): 4 µM (≈ 14.5 µg/mL)

SMILES: CC(C)[C@H](N)C(=O)N[C@H](C(=O)N[C@H](CCCNC(=N)N)C(=O)N[C@@H](CCCNC(=N)N)C(=O)N[C@@H](Cc1c[nH]cn1)C(=O)N[C@H](C(=O)N[C@H](C(=O)N[C@H](C(=O)N[C@H](C(=O)N[C@H](CCCNC(=N)N)C(=O)N[C@@H](CCCNC(=N)N)C(=O)N[C@@H](Cc1c[nH]cn1)C(=O)N[C@H](C(=O)N[C@H](C(=O)N[C@H](C(=O)N[C@H](C(=O)N[C@H](CCCNC(=N)N)C(=O)N[C@@H](CCCNC(=N)N)C(=O)N[C@@H](Cc1c[nH]cn1)C(=O)N[C@H](C(=O)N[C@H](C(N)=O)C(C)C)C(C)C)C(C)C)C(C)C)C(C)C)C(C)C)C(C)C)C(C)C)C(C)C)C(C)C)C(C)C
- MIC95 (Candida albicans [1]): 8 µM (≈ 20.4 µg/mL)
- MIC95 (Candida albicans [3]): 8 µM
- HC50 at 1 h [4]: > 512 µM
- Stability [5]: Stable
- Activity (Candida albicans [29]): Active
- MIC95 (Candida albicans [6]): 8 µM (≈ 20.4 µg/mL)
- growth inhibition (GI) (Candida albicans [30]): Active; No Alterations In The Antimicrobial Activity Was Observed In Presence Of Serum
- Activity (Cell membrane [31]): Active
- MIC95 (Candida albicans [8]): 32 µM
- Stability [9]: Unstable
- Activity (Candida albicans [32]): inactive
- Stability [10]: Stable
- Activity (HEK293 [33]): Toxic
- inhibition (INH) (Candida albicans [34]): 90%
- Activity (Candida albicans [35]): Active; Only Limited Number Of Pits Appeared
- MIC95 (Candida albicans [11]): 32 µM
- Activity (Candida albicans [36]): Active
- hemolysis at 1 h, 512 µM [12]: 8.58%
- MIC95 (Candida albicans [13]): 64 µM
- MIC95 (Candida albicans [14]): 8 µM (≈ 20.4 µg/mL)
- Activity (Candida albicans [37]): Dose-dependent-effect
- MIC95 (Candida parapsilosis): 4 µM (≈ 10.2 µg/mL)
- Activity (Candida albicans [38]): Active
- MIC95 (Candida albicans [15]): 4 µM (≈ 10.2 µg/mL)
- MIC95 (Candida tropicalis): 4 µM (≈ 10.2 µg/mL)
- MIC95 (Candida albicans [16]): 32 µM
- MIC95 (Candida albicans [17]): 8 µM
- MIC95 (Candida albicans [18]): 4 µM
- Activity (Candida albicans [39]): <=100%
- Stability [19]: Stable
- Activity (Candida albicans [40]): Dose-dependent-effect
- Stability [20]: Stable
- Activity (Cell membrane [41]): Active
- MIC95 (Candida albicans [21]): 8 µM (≈ 20.4 µg/mL)
- MIC95 (Candida albicans [22]): 4 µM (≈ 10.2 µg/mL)
- MIC95 (Candida albicans [23]): 4 µM (≈ 10.2 µg/mL)
- Stability [24]: Stable
- MIC95 (Candida albicans [25]): 8 µM (≈ 20.4 µg/mL)
- Stability [26]: Stable
- MIC95 (Candida albicans [27]): 8 µM (≈ 20.4 µg/mL)
- MIC95 (Candida albicans [28]): 8 µM (≈ 20.4 µg/mL)
